Assay results from PubChem BioAssay (NCI).
Several values for one entry are separate records, joined by “and”; a condition that tells them apart may be missing. Equal values may be shown once.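 How tested: cells in 96-well plates exposed to compound for 48 hours at five concentrations. Here, GI50 denotes the concentration required for 50% inhibition of growth. TGI: concentration producing complete growth inhibition.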

Key:
Assay in all cases: NCI anticancer screen, dose series, 48 h
A498 renal = system: A498 renal
HCT-116 colon = system: HCT-116 colon
HOP-62 NSCLC = system: HOP-62 NSCLC
IGROV1 ovarian = system: IGROV1 ovarian
NCI-H23 lung = system: NCI-H23 lung
SK-MEL-5 melanoma = system: SK-MEL-5 melanoma
T-47D breast = system: T-47D breast
TK-10 renal = system: TK-10 renal
MDA-N = system: MDA-N
RPMI-8226 leukemia = system: RPMI-8226 leukemia
SK-OV-3 ovarian = system: SK-OV-3 ovarian

Structure (SMILES) | TGI (A498 renal) | TGI (HCT-116 colon) | TGI (HOP-62 NSCLC) | TGI (IGROV1 ovarian) | TGI (NCI-H23 lung) | TGI (SK-MEL-5 melanoma) | TGI (T-47D breast) | TGI (TK-10 renal) | TGI (MDA-N) | TGI (RPMI-8226 leukemia) | TGI (SK-OV-3 ovarian) | GI50 (IGROV1 ovarian)
O=C(O)CN1C=C(C(=O)c2cc3ccccc3n2S(=O)(=O)c2ccccc2)CCC1 | > 100 µM | > 100 µM | > 100 µM | > 100 µM | > 100 µM | 71.8 µM | > 100 µM | > 100 µM | – | – | – | –
CC(=O)Nc1ccc(NCC(=O)Nn2cnc3ccc(S(=O)(=O)Nc4ccc(NC(C)=O)cc4)cc3c2=O)cc1 | – | > 100 µM | > 100 µM | > 100 µM | > 100 µM | – | – | > 100 µM | > 100 µM | > 100 µM | > 100 µM | –
O=[N+]([O-])c1cccc2nc3ccccc3c(NCCCn3ccnc3[N+](=O)[O-])c12 | – | 0.00198 µM and 0.0188 µM | 0.143 µM | 0.212 µM and 0.412 µM | 0.023 µM | – | – | 0.0489 µM and 0.0392 µM | 0.000244 µM | 0.000419 µM | 0.111 µM | 41.9 nM
Cc1ccccc1N=Nc1c(O)c(S(=O)(=O)O)cc2cc(S(=O)(=O)O)ccc12 | > 100 µM | > 100 µM | > 100 µM | > 100 µM | > 100 µM | > 100 µM | > 100 µM | > 100 µM | > 100 µM | – | > 100 µM | –
COc1ccc(C2N(c3ccc(F)cc3)C(=O)N3C(c4ccc(OC)cc4)N(c4ccc(F)cc4)C(=O)N23)cc1 (stereo not drawn) | > 100 µM | > 100 µM | > 100 µM | > 100 µM | > 100 µM | > 100 µM | > 100 µM | > 100 µM | > 100 µM | > 100 µM | – | –
CC1(C)O[C@@H]([C@H](O)CO)[C@H](O)[C@@H](C2SCCCS2)O1 | > 100 µM | > 100 µM | > 100 µM | > 100 µM | > 100 µM | > 100 µM | > 100 µM | > 100 µM | – | > 100 µM | > 100 µM | –
Cc1ccn2c(=O)cc(CN3CCOCC3)nc2c1 | – | > 100 µM | > 100 µM | > 100 µM | > 100 µM | – | – | > 100 µM | > 100 µM | > 100 µM | > 100 µM | –
O=C1C[C@H](c2ccccc2)O[C@@H](c2ccccc2)C1 | – | > 100 µM | > 100 µM | > 100 µM | > 100 µM | > 100 µM | > 100 µM | – | > 100 µM | > 100 µM | > 100 µM | –
COc1ccccc1NC(=S)N/N=C/c1c(C)n(C)n(-c2ccccc2)c1=O | > 100 µM | > 100 µM | > 100 µM | > 100 µM | > 100 µM | > 100 µM | > 100 µM | > 100 µM | – | > 100 µM | > 100 µM | –
CCOC(=O)c1c[nH]c2c(Sc3ccccc3)nccc2c1=O | > 100 µM | > 100 µM | > 100 µM | > 100 µM | > 100 µM | > 100 µM | > 100 µM | > 100 µM | > 100 µM | – | > 100 µM | –
OC(c1ccc(F)cc1)C(F)(F)c1nc2ccccc2o1 (stereo not drawn) | > 100 µM | > 100 µM | > 100 µM | > 100 µM | > 100 µM | > 100 µM | > 100 µM | > 100 µM | – | > 100 µM | > 100 µM | –
Cc1ccc(S(=O)(=O)NC(=O)NCCc2cnc[nH]2)cc1 | > 100 µM | > 100 µM | > 100 µM | > 100 µM | > 100 µM | > 100 µM | – | > 100 µM | – | > 100 µM | > 100 µM | –
CC(=O)O[C@H]1C(=O)[C@@]2(C)[C@H]([C@H](OC(=O)c3cccc([N+](=O)[O-])c3)[C@]3(O)C[C@H](OC(=O)[C@H](O)[C@@H](NC(=O)c4ccccc4)c4ccccc4)C(C)=C1C3(C)C)[C@]1(OC(C)=O)CO[C@@H]1C[C@@H]2O | 18.5 µM | > 25 µM | > 25 µM | > 25 µM | – | > 9.01 µM | – | > 21.8 µM | 0.0115 µM | 18.1 µM | > 25 µM | –
CC(O)(Cc1ccccc1C#N)Cc1ccccc1C#N | > 100 µM | > 100 µM | > 100 µM | > 100 µM | – | > 100 µM | > 100 µM | > 100 µM | > 100 µM | – | > 100 µM | –
N#Cc1nc(CCN2C(=O)c3ccccc3C2=O)oc1N | – | > 100 µM | > 100 µM | > 100 µM | > 100 µM | > 100 µM | > 100 µM | > 100 µM | > 100 µM | > 100 µM | > 100 µM | –
S=c1[nH]nc(CNc2ccc(-c3n[nH]c(=S)n3-c3ccc(Cl)cc3)cc2)n1-c1ccc(Cl)cc1 | > 100 µM | 32.8 µM | 36.6 µM | 47.1 µM | > 100 µM | 65 µM | – | > 100 µM | 86.1 µM | 78 µM | > 100 µM | –
O=c1cc(N=Nc2ccc(Br)cc2)[nH]c(=S)[nH]1 | – | 35.6 µM | > 100 µM | > 100 µM | > 100 µM | > 100 µM | 62.4 µM | 32.1 µM | > 100 µM | 57.9 µM | > 100 µM | –
CCc1n[nH]c(=O)n1/N=C/c1ccccc1O | – | > 100 µM | > 100 µM | > 100 µM | > 100 µM | > 100 µM | – | > 100 µM | > 100 µM | > 100 µM | > 100 µM | –
O=c1[nH]c2ccccc2c(=O)n1/N=C/c1ccc(O)cc1 | > 100 µM | > 100 µM | 48 µM | > 100 µM | > 100 µM | > 100 µM | > 100 µM | > 100 µM | – | > 100 µM | > 100 µM | –
CC(C)=CCC[C@@H](C)/C=C/C=C(\C)C(=O)CC[C@@H]1CC[N@+]2(C)CCCC[C@H]12 | > 100 µM | > 100 µM | > 100 µM | > 100 µM | > 100 µM | > 100 µM | > 100 µM | > 100 µM | > 100 µM | > 100 µM | – | –
N#Cc1cc(C#N)c(N)nc1N | > 100 µM | > 100 µM | > 100 µM | > 100 µM | > 100 µM | > 100 µM | – | > 100 µM | > 100 µM | > 100 µM | > 100 µM | –
